Patent US11161862B2, “Phosphonium-ion tethered tetracycline drugs for treatment of cancer” (Oxford University Innovation Limited, priority 2017, dated 2021)
Where a name gives a salt, the structure may show the parent alone.

system: MDA-231 cancer cells; test: Inhibition of proliferation assay: cell confluence (IncuCyte live cell imaging); assay type: cell-based; settings: MDA-231 cells; concentration 10 μM; IncuCyte imaging every 3 h over 4-5 d; relative confluence normalised to time zero
Description: Inhibition of Proliferation Assay
The confluence value is a surrogate for cell proliferation and growth. The value is expressed as a percent confluence, which represents the fraction of culture dish-surface that is occupied by cells. As the number of cells in the dish increases over time due to proliferation, so will their coverage of that surface increase. Expansion of the cell population on the cell culture-dish surface and confluence have mostly a linear relationship until the cells on the plate surface begin to reach saturation or maximum density.
Confluence is determined based on image analysis. Image based software can identify objects in the image field base on changes to pixel density in a grey scale image. The software can then assign a mask to those pixels within the object. Objects can be ‘gated’ out based on size and shape. To determine cell confluence, images of cells are first masked as objects. The surface area of the image that is masked is measured and compared to the total surface area of the culture dish surface to obtain a percent confluence.
MDA-231 cancer cells were obtained from ATCC. Cells were cultured in Dulbecco's Modified Eagle Medium (DMEM) supplemented with 10% Fetal Bovine Serum (FBS), 2 mM Glutamax, 1 mM Non Essential Amino Acid (NEAA) solution and 1 mM sodium pyruvate. […] Final DMSO concentrations were […]. Images were acquired with an IncuCyte Live Cell Imaging microscopy (Essen Bioscience) at every 3 h under cell culture conditions with 10× objective over 4-5 d. Cell confluence was calculated from one field of view per well using the IncuCyte in-built algorithm. Relative confluence values were obtained by normalising each value to the time zero value in each sample.

| SMILES | % Confluence |
| --- | --- |
| C[C@H]1c2ccc(NC(=O)CCCCCCCCCCC[P+](C)(C)C)c(O)c2C(=O)C2=C(O)[C@]3(O)C(=O)C(C(N)=O)=C(O)[C@@H](N(C)C)[C@@H]3[C@@H](O)[C@@H]21.[Cl-] [Example 6, (11-{[(5R,5aR,6S,6aR,7S,10aS)-9-carbamoyl-7-(dimethylamino)-1,6,8,10a,11-pentahydroxy-5-methyl-10,12-dioxo-5,5a,6,6a,7,10,10a,12-octahydrotetracen-2-yl]carbamoyl}undecyl)trimethylphosphonium chloride] | 57.7% |
| C[C@H]1c2ccc(NC(=O)CCCCCCCCCCC[P+](c3ccccc3)(c3ccccc3)c3cnn(C)c3)c(O)c2C(=O)C2=C(O)[C@]3(O)C(=O)C(C(N)=O)=C(O)[C@@H](N(C)C)[C@@H]3[C@@H](O)[C@@H]21.[Cl-] [Example 10, (11-{[(5R,5aR,6S,6aR,7S,10aS)-9-carbamoyl-7-(dimethylamino)-1,6,8,10a,11-pentahydroxy-5-methyl-10,12-dioxo-5,5a,6,6a,7,10,10a,12-octahydrotetracen-2-yl]carbamoyl}undecyl)(1-methyl-1H-pyrazol-4-yl)diphenylphosphonium chloride] | 12.4% |
| CC(C)[P+](CCCCCCCCCCCC(=O)Nc1ccc2c(c1O)C(=O)C1=C(O)[C@]3(O)C(=O)C(C(N)=O)=C(O)[C@@H](N(C)C)[C@@H]3[C@@H](O)[C@@H]1[C@H]2C)(c1ccccc1)c1ccccc1 [Example 13, (11-{[(5R,5aR,6S,6aR,7S,10aS)-9-carbamoyl-7-(dimethylamino)-1,6,8,10a,11-pentahydroxy-5-methyl-10,12-dioxo-5,5a,6,6a,7,10,10a,12-octahydrotetracen-2-yl]carbamoyl}undecyl)diphenyl(propan-2-yl)phosphonium chloride] | 35.1% |
| C[C@H]1c2ccc(NC(=O)CCCCCCC[P+](C)(C)c3ccccc3)c(O)c2C(=O)C2=C(O)[C@]3(O)C(=O)C(C(N)=O)=C(O)[C@@H](N(C)C)[C@@H]3[C@@H](O)[C@@H]21.[Cl-] [Example 3, (7-{[(5R,5aR,6S,6aR,7S,10aS)-9-carbamoyl-7-(dimethylamino)-1,6,8,10a,11-pentahydroxy-5-methyl-10,12-dioxo-5,5a,6,6a,7,10,10a,12-octahydrotetracen-2-yl]carbamoyl}heptyl)dimethylphenylphosphonium chloride] | 62.5% |
| C[C@H]1c2ccc(NC(=O)CCCCCCCC[P+](c3ccccc3)(c3ccccc3)c3cnn(C)c3)c(O)c2C(=O)C2=C(O)[C@]3(O)C(=O)C(C(N)=O)=C(O)[C@@H](N(C)C)[C@@H]3[C@@H](O)[C@@H]21.[Cl-] [Example 9, (8-{[(5R,5aR,6S,6aR,7S,10aS)-9-carbamoyl-7-(dimethylamino)-1,6,8,10a,11-pentahydroxy-5-methyl-10,12-dioxo-5,5a,6,6a,7,10,10a,12-octahydrotetracen-2-yl]carbamoyl}octyl)(1-methyl-1H-pyrazol-4-yl)diphenylphosphonium chloride] | 55.5% |
| C[C@H]1c2ccc(NC(=O)CCCCCCC[P+](C)(c3ccccc3)c3ccccc3)c(O)c2C(=O)C2=C(O)[C@]3(O)C(=O)C(C(N)=O)=C(O)[C@@H](N(C)C)[C@@H]3[C@@H](O)[C@@H]21.[Cl-] [Example 2, (7-{[(5R,5aR,6S,6aR,7S,10aS)-9-carbamoyl-7-(dimethylamino)-1,6,8,10a,11-pentahydroxy-5-methyl-10,12-dioxo-5,5a,6,6a,7,10,10a,12-octahydrotetracen-2-yl]carbamoyl}heptyl)(methyl)diphenylphosphonium chloride] | 91.7% |
| C[C@H]1c2ccc(NC(=O)CCCCCCCCC[P+](c3ccccc3)(c3ccccc3)c3cnn(C)c3)c(O)c2C(=O)C2=C(O)[C@]3(O)C(=O)C(C(N)=O)=C(O)[C@@H](N(C)C)[C@@H]3[C@@H](O)[C@@H]21.[Cl-] [Example 11, (9-{[(5R,5aR,6S,6aR,7S,10aS)-9-carbamoyl-7-(dimethylamino)-1,6,8,10a,11-pentahydroxy-5-methyl-10,12-dioxo-5,5a,6,6a,7,10,10a,12-octahydrotetracen-2-yl]carbamoyl}nonyl)(1-methyl-1H-pyrazol-4-yl)diphenylphosphonium chloride] | 70.1% |
| COc1ccc([P+](CCCCCCCCCCCC(=O)Nc2ccc3c(c2O)C(=O)C2=C(O)[C@]4(O)C(=O)C(C(N)=O)=C(O)[C@@H](N(C)C)[C@@H]4[C@@H](O)[C@@H]2[C@H]3C)(c2ccc(OC)cc2)c2ccc(OC)cc2)cc1 [Example 1, (11-{[(5R,5aR,6S,6aR,7S,10aS)-9-carbamoyl-7-(dimethylamino)-1,6,8,10a,11-pentahydroxy-5-methyl-10,12-dioxo-5,5a,6,6a,7,10,10a,12-octahydrotetracen-2-yl]carbamoyl}undecyl)tris(4-methoxyphenyl)phosphonium formate] | 17% |
| Cc1cccc([P+](CCCCCCCCCCCC(=O)Nc2ccc3c(c2O)C(=O)C2=C(O)[C@]4(O)C(=O)C(C(N)=O)=C(O)[C@@H](N(C)C)[C@@H]4[C@@H](O)[C@@H]2[C@H]3C)(c2cccc(C)c2)c2cccc(C)c2)c1.[Cl-] [Example 7, (11-{[(5R,5aR,6S,6aR,7S,10aS)-9-carbamoyl-7-(dimethylamino)-1,6,8,10a,11-pentahydroxy-5-methyl-10,12-dioxo-5,5a,6,6a,7,10,10a,12-octahydrotetracen-2-yl]carbamoyl}undecyl)tris(3-methylphenyl)phosphonium chloride] | 29.4% |
| C[C@H]1c2ccc(NC(=O)CCCCCCC[P+](C)(C)C)c(O)c2C(=O)C2=C(O)[C@]3(O)C(=O)C(C(N)=O)=C(O)[C@@H](N(C)C)[C@@H]3[C@@H](O)[C@@H]21.[Cl-] [Example 4, (7-{[(5R,5aR,6S,6aR,7S,10aS)-9-carbamoyl-7-(dimethylamino)-1,6,8,10a,11-pentahydroxy-5-methyl-10,12-dioxo-5,5a,6,6a,7,10,10a,12-octahydrotetracen-2-yl]carbamoyl}heptyl)trimethylphosphonium chloride] | 111.8% |
| C[C@H]1c2ccc(NC(=O)CCCCCCCCCC[P+](c3ccccc3)(c3ccccc3)c3cnn(C)c3)c(O)c2C(=O)C2=C(O)[C@]3(O)C(=O)C(C(N)=O)=C(O)[C@@H](N(C)C)[C@@H]3[C@@H](O)[C@@H]21.[Cl-] [Example 12, (10-{[(5R,5aR,6S,6aR,7S,10aS)-9-carbamoyl-7-(dimethylamino)-1,6,8,10a,11-pentahydroxy-5-methyl-10,12-dioxo-5,5a,6,6a,7,10,10a,12-octahydrotetracen-2-yl]carbamoyl}decyl)(1-methyl-1H-pyrazol-4-yl)diphenylphosphonium chloride] | 45.4% |
| C[C@H]1c2ccc(NC(=O)CCCCCCCCCCC[P+](C)(c3ccccc3)c3ccccc3)c(O)c2C(=O)C2=C(O)[C@]3(O)C(=O)C(C(N)=O)=C(O)[C@@H](N(C)C)[C@@H]3[C@@H](O)[C@@H]21.[Cl-] [Example 5, (11-{[(5R,5aR,6S,6aR,7S,10aS)-9-carbamoyl-7-(dimethylamino)-1,6,8,10a,11-pentahydroxy-5-methyl-10,12-dioxo-5,5a,6,6a,7,10,10a,12-octahydrotetracen-2-yl]carbamoyl}undecyl)(methyl)diphenylphosphonium chloride] | 24.9% |
| C[C@H]1c2ccc(NC(=O)CCCCCCC[P+](c3ccccc3)(c3ccccc3)c3cnn(C)c3)c(O)c2C(=O)C2=C(O)[C@]3(O)C(=O)C(C(N)=O)=C(O)[C@@H](N(C)C)[C@@H]3[C@@H](O)[C@@H]21.[Cl-] [Example 8, (7-{[(5R,5aR,6S,6aR,7S,10aS)-9-carbamoyl-7-(dimethylamino)-1,6,8,10a,11-pentahydroxy-5-methyl-10,12-dioxo-5,5a,6,6a,7,10,10a,12-octahydrotetracen-2-yl]carbamoyl}heptyl)(1-methyl-1H-pyrazol-4-yl)diphenylphosphonium chloride] | 45.6% |
| C[C@H]1c2cccc(O)c2C(=O)C2=C(O)[C@]3(O)C(=O)C(C(N)=O)=C(O)[C@@H](N(C)C)[C@@H]3[C@@H](O)[C@@H]21 [Doxycycline, reference compound] | 98.7% |

same assay, conditions: MDA-231 cells; concentration 50 μM; IncuCyte imaging every 3 h over 4-5 d; relative confluence normalised to time zero

| SMILES | % Confluence |
| --- | --- |
| C[C@H]1c2cccc(O)c2C(=O)C2=C(O)[C@]3(O)C(=O)C(C(N)=O)=C(O)[C@@H](N(C)C)[C@@H]3[C@@H](O)[C@@H]21 [Doxycycline, reference compound] | 91% |
